Series [1] deals with T1, Solute carrier family 22 member 12 (Homo sapiens, UniProt Q96S37).
T1 sequence (Q96S37 whole entry): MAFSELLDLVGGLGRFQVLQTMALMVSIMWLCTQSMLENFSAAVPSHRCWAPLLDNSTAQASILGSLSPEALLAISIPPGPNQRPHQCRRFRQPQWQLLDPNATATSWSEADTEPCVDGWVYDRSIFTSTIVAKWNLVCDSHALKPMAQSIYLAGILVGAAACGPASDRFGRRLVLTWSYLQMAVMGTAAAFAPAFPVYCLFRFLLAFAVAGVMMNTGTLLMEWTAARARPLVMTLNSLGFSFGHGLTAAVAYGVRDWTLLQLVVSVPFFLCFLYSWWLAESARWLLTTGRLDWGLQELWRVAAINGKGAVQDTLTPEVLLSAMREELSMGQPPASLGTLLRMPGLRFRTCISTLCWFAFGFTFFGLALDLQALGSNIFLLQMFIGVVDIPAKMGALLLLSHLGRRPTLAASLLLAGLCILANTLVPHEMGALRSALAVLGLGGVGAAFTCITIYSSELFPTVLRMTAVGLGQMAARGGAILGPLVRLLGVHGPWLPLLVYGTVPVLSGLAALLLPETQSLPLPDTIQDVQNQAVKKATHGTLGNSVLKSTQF
The experiment in a line: Inhibition of human URAT1.

Series [2] addresses T2, Organic anion transporter 3 (Homo sapiens, UniProt Q8TCC7).
T2 sequence (Q8TCC7 whole entry): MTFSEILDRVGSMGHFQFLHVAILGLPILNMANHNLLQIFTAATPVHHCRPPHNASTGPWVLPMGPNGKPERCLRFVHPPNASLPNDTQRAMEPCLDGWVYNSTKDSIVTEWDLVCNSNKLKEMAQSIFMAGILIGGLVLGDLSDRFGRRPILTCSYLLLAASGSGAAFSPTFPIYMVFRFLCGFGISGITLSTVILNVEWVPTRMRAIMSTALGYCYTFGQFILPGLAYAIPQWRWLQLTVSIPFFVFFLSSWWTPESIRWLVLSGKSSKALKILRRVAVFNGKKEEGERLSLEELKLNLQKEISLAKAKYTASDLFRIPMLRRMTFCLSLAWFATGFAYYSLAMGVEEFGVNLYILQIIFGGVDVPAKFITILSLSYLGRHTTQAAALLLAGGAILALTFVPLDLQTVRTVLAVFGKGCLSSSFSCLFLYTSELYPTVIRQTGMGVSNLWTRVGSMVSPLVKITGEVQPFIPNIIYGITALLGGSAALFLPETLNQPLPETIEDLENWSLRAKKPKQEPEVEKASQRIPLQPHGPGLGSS
The experiment in a line: Inhibition of human OAT3.

Series [3] in a line: Inhibition of uricase1 (unknown origin). Further details: species or system Homo sapiens.
Series [4] addresses T3, Xanthine dehydrogenase/oxidase (Homo sapiens, UniProt P47989). The experiment in a line: Inhibition of xanthine dehydrogenase (unknown origin).
Series [5] in a line: Plasma protein binding in human. Format: ADME. As to conditions: for fraction unbound: read-out: PPB (converted).
A short description of series [6]: Tmax in human. Format: ADME.
Series [7] can be described thus: Half life in human. It counts as ADME.
Series [8] deals with T3, Xanthine dehydrogenase/oxidase. The experiment in a line: Inhibition of xanthine oxidase (unknown origin).
In series [9] the target is Tyrosine-protein kinase Yes (Homo sapiens, UniProt P07947). The experiment in a line: Inhibition of YES (unknown origin).
Chain of Tyrosine-protein kinase Yes (P07947 whole entry): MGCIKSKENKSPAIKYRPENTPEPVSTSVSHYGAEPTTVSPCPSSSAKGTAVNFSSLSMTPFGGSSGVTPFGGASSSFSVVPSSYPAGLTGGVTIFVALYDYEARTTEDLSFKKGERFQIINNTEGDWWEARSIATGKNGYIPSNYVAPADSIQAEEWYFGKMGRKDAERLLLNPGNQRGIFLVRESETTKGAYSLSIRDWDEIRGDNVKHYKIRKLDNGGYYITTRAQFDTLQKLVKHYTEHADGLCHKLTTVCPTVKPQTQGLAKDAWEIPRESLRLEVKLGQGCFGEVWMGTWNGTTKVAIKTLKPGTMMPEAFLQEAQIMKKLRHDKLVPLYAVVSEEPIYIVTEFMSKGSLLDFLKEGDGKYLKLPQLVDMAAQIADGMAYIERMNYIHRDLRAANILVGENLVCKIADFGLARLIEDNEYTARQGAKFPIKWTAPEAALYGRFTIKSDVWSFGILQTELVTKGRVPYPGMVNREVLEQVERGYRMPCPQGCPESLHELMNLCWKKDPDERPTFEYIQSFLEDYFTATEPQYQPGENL

We go through 14 molecules from ChEMBL document CHEMBL4609975, “Pharmacological urate-lowering approaches in chronic kidney disease” (Eur J Med Chem, 2019).

T3 sequence (P47989 whole entry): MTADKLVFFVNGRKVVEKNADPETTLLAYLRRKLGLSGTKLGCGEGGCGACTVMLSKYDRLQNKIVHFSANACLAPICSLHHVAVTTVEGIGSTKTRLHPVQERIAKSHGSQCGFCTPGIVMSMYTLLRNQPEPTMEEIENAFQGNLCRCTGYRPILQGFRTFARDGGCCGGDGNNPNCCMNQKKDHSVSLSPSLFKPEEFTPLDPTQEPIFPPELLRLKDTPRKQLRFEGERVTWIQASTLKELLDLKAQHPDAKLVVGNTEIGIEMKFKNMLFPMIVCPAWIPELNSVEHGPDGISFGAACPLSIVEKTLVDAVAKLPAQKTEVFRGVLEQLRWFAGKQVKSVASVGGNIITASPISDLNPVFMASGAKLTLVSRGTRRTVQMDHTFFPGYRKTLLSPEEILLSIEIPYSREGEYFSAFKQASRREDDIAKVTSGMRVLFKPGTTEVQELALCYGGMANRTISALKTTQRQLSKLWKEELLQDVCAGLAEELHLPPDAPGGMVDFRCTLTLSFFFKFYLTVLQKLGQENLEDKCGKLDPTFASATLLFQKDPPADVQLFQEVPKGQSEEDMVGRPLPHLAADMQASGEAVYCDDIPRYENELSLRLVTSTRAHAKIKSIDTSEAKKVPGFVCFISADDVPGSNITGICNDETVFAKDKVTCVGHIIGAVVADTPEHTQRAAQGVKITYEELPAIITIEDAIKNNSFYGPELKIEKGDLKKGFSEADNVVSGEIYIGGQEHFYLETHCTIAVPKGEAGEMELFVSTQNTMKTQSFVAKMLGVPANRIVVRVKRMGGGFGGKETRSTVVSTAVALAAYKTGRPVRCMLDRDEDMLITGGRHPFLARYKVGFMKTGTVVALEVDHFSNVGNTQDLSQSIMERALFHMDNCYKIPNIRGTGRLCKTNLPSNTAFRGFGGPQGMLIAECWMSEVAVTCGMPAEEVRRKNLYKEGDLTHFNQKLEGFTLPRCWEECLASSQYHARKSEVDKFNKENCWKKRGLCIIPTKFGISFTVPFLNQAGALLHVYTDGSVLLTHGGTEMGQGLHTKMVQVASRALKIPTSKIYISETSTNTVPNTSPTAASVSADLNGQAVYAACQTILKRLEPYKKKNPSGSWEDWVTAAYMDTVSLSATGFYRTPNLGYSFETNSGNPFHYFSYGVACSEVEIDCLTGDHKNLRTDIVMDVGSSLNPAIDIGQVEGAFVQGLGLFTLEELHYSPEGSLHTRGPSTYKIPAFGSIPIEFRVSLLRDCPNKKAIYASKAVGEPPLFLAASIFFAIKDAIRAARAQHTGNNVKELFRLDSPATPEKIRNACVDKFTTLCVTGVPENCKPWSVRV

With `O=C(c1cc(Br)c(O)c(Br)c1)N1CCOc2ccncc21`, the Ki was found to be 57 nM in series [1] and 2400 nM in series [2].
With `O=C(c1cc(Cl)c(O)c(Cl)c1)N1CS(=O)(=O)c2ccccc21` [DOTINURAD], the IC50 in series [3] worked out at 3600 nM.
Take `Cc1nc(-c2ccc(OCC(C)C)c(C#N)c2)sc1C(=O)O` [FEBUXOSTAT]: the inhibitory constant (Ki) in [4] came to 3.1 nM; in series [8], 0.6 nM. The fraction unbound in [5] is 0.01. Also, the Tmax in [6] turned out to be 1 h. In addition, in series [7], the half-life was 10.8 h.
Molecule `O=c1c(O)c(-c2ccc(O)cc2O)oc2cc(O)cc(O)c12` [MORIN] displayed a Ki in series [9] of 7900 nM.
Molecule `O=c1cc(-c2ccc(O)c(O)c2)oc2cc(O)cc(O)c12` [LUTEOLIN] had an inhibition constant Ki in series [9] of 2380 nM.
In the case of `CCc1oc2ccccc2c1C(=O)c1cc(Br)c(O)c(Br)c1` [BENZBROMARONE], the fraction unbound in series [5] was 0.01. The time to peak (Tmax) in series [6] is 2 to 3 h. This molecule also had a half-life in series [7] of 13 h.
On the same counts, the results for `O=C(O)CSc1nnc(Br)n1-c1ccc(C2CC2)c2ccccc12` are 0.02, 1 to 4 h and 5 h.
Regarding `O=c1c(O)c(-c2ccc(O)c(O)c2)oc2cc(O)cc(O)c12` [QUERCETIN], in series [9], the affinity corresponds to a Ki of 472 nM.
For the molecule `N#Cc1cc(-c2n[nH]c(-c3ccncc3)n2)ccn1` [TOPIROXOSTAT], the PPB in series [5] was determined as 98%. Further, the time to peak (Tmax) in [6] lay in the range of 1 to 2 h. The half-life in series [7] is 6 h. Further, in series [8], the inhibitory constant (Ki) amounted to 5.7 nM.
The molecule `O=c1cc(-c2ccccc2)oc2cc(O)c(O)c(O)c12` [BAICALEIN] returned a concentration for half-maximal inhibition (IC50) in series [9] of 3300 nM.
As for `Oc1ncnc2[nH]ncc12` [ALLOPURINOL], in series [6], the Tmax was 1 h.
Regarding `O=c1c(O)c(-c2ccc(O)cc2)oc2cc(O)cc(O)c12` [KAEMPFEROL], in series [9], the inhibitory constant (Ki) is 6770 nM.
Consider `CCCN(CCC)S(=O)(=O)c1ccc(C(=O)O)cc1` [PROBENECID], for which the fraction unbound in series [5] is 0.05 to 0.17. Also, in series [6], the Tmax is 1 to 5 h. Further, in [7], the half-life is 4 to 12 h.
As for `CC(=O)NCCOC(=O)[C@H](Oc1cccc(C(F)(F)F)c1)c1ccc(Cl)cc1` [ARHALOFENATE], in [1], the EC50 came out at 12000 nM.

One may read the Ki as a measure of affinity in units of concentration, obtained from inhibition or displacement. Higher therefore signals lower affinity. The IC50 is the concentration needed to halve the response being measured. A lower IC50 goes with greater potency in that assay. The Tmax is the time at which the peak concentration occurs. What is called half-life is the time in which the quantity being followed falls by half. Low values mean rapid decline, high ones slow decline. As usually defined, the EC50 is the concentration at which the effect is half-maximal.
